Here are results for two compounds from patent US7094413B2, “Combined therapy for treatment of HIV infection” (priority 2002, dated 2006).

For one assay, the system named is SIVmac251. Put plainly: Plasma viral load (real time RT-PCR of SIV RNA) in SIV-infected rhesus macaques. It counts as in vivo, rhesus macaques (Macaca mulatta). The text has this: Fifteen (15) colony bred rhesus macaques (Macaca mulatta) from the California Regional Primate Research Center, Davis, were used in this study. Animals were housed in accordance with The American Association for Accredition of Laboratory Animal Care guidelines. All animals were seronegative for simian retrovirus (SRV-1) and simian T cell leukemia virus type-1 (STLV-1). Rhesus macaques were intravenously (I.V.) infected with 100 animal infectious doses of uncloned pathogenic SIVmac251. This viral inoculum has been previously shown to cause persistent viremia and infection Of multiple tissues in vivo, leading to fatal AIDS-like disease (Mandell et al 1995). The animals were divided into the following groups • 1. Untreated Controls, necropsy at week 10 (n=3) • 2. Untreated Controls, necropsy at week 26 (n=3) • 3 PMPA treatment, necropsy at week 10 (n=3) • 4. PMPA+RDP58 treatment, necropsy at week 10 (n=3) • 5. PMPA treatment, necropsy at week 26 (n=3) • 6. […]
Primers and probes specific to the SIV RNA sequence were designed and used in the real time PCR reaction. […] The progress of the reaction is monitored through the fluorescence released by […] that is proportional to the product being formed. Thus the fluorescence intensity is directly related to the amount of input target RNA. The data was analyzed with Sequence Detector Software (SDS). […]

Assay [1] deals with T cells in gut associated lymphoid tissue (GALT) and blood. Put plainly: Flow cytometry of T cells from jejunal biopsies (GALT) and peripheral blood of SIV-infected rhesus macaques. It counts as in vivo, rhesus macaques (Macaca mulatta). The source says: Fifteen (15) colony bred rhesus macaques (Macaca mulatta) from the California Regional Primate Research Center, Davis, were used in this study. Animals were housed in accordance with The American Association for Accredition of Laboratory Animal Care guidelines. All animals were seronegative for simian retrovirus (SRV-1) and simian T cell leukemia virus type-1 (STLV-1). Rhesus macaques were intravenously (I.V.) infected with 100 animal infectious doses of uncloned pathogenic SIVmac251. This viral inoculum has been previously shown to cause persistent viremia and infection Of multiple tissues in vivo, leading to fatal AIDS-like disease (Mandell et al 1995). The animals were divided into the following groups • 1. Untreated Controls, necropsy at week 10 (n=3) • 2. Untreated Controls, necropsy at week 26 (n=3) • 3 PMPA treatment, necropsy at week 10 (n=3) • 4. PMPA+RDP58 treatment, necropsy at week 10 (n=3) • 5. PMPA treatment, necropsy at week 26 (n=3) • 6. PMPA+RDP58 treatment, necropsy at week 26 (n=3)
PMPA treatment was initiated at 6 weeks post-infection and was administered at 30 mg/kg, I.V. RDP58 was administered orally, dissolved in drinking water, at 2 mg/kg, 3×/week.
Jejunal biopsies and peripheral blood samples were obtained from all animals prior to infection and at 2 weeks, 6 weeks, 10 weeks, 16 weeks and 26 weeks post-infection and at necropsy. Jejunal biopsies was obtained using a pediatric gastroscope.
Jejunal pinch biopsy samples were incubated RPMI 1640 (Gibco) and collagenase (Sigma) at 37° C. and rapidly shaken for 45 minutes then subjected to Percoll (Sigma) density gradient centrifugation to enrich for T cells and eliminate tissue debris. Cells were then washed with PBS (Gibco) and allowed to equilibrate over night at 37° C. and 5% CO2 in complete RPMI 1640 (containing 10% fetal calf sera, penicillin and streptomyicin). Cells were stained for three-color flow cytometric analysis with CD3FITC, CD4PE, CD8PE, CD45RA (BD Pharmingen), CD8TC, CD69TC, CD28TC, CD25PE (Caltag). All cells were fixed in 1% paraformaldehyde in PBS and read on a Bectin Dickenson FacScan within 3 hours of staining. Flow data was analyzed using Bectin Dickenson CellQuest softwear.

“Also recorded” adds a separate entry of the source.

Take “Arg-nL-nL-nL-Arg-nL-nL-nL-Gly-Tyr [RDP58]”: the “effect of RDP58 on suppression of viral loads by antiretroviral therapy” value in the assay on SIVmac251 (RDP58 2 mg/kg orally 3x/week, alone or added to PMPA, 2 mg/kg) is on record as “no adverse effect; also recorded: did not interfere with or change the effect of antiretroviral therapy”. Moreover, in assay [1] (GALT), the “stabilizing CD4+ T-cell population in GALT” value was “beneficial effects”.

In the case of `C[C@H](Cn1cnc2c(N)ncnc21)OCP(=O)(O)O` [PMPA, 9-R-(2-phosphonomethoxypropyl)adenine], the “plasma viral load (viral RNA copies/ml plasma)” value with SIVmac251 (therapy started at week 6 post infection, PMPA 30 mg/kg I.V.) is given as “gradual decrease in viral load”. Besides, the “CD3 gated CD4+ T cells after SIV-induced depletion” value in assay [1] (GALT and blood, treatment from week 6) is “reversal”. Moreover, the “% CD3 gated CD8+ cells” value in assay [1] (by week 10) is listed as “gradual decrease”. Further, in assay [1] (week 12, GALT), the “CD4+CD8+ double positive T cell counts in GALT” value is given as “modest changes”.
